Reference: the METLIN SMRT retention time set (Domingo-Almenara et al. 2019)

Experiment: gradient 5% acetonitrile 3 min, to 50% in 2 min, to 85% in 15 min, held 3 min, 100 µL/min
Details: column: Zorbax Extend-C18 2.1 x 50 mm; eluents: water / acetonitrile, 0.1% formic acid
Method in brief: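 Over 3 months, pure standards in mixtures of ~100 molecules were run by HPLC coupled to a quadrupole time-of-flight mass spectrometer in positive and negative ionization mode. The column was a Zorbax Extend-C18 (2.1 × 50 mm, 1.8 μm) at 100 μL/min, eluted with water and acetonitrile each holding 0.1% formic acid, with 40 μL dead and 900 μL dwell volumes. Retention time was determined from adduct peaks chosen by software and checked manually.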

O=C(NC1CC1)c1cc(-c2cccc(F)c2)ns1
RP-LC retention time: 882 s

CCOc1ccc(C(=O)N2CCC3(CC2)NC(=O)c2cccc(Cl)c2N3)cc1
RP-LC retention time: 790 s

CCCNC(=O)CC1CCN(C(=O)c2c(C)[nH]c(C(=O)OCC)c2C)CC1
RP-LC retention time: 653 s

COc1ccccc1-c1nc(Cn2nnc(-c3nc(-c4ccc(Cl)cc4)no3)c2C)c(C)o1
RP-LC retention time: 1220 s

Cc1nnc(CNC(=O)C(C)n2nnc3ccccc3c2=O)o1 (centres undefined)
RP-LC retention time: 577 s

CC(C)c1nc2nccc(-c3ccc(F)cc3)n2n1
RP-LC retention time: 831 s

COc1ccc(Nc2nc(N3CCN(c4ncccn4)CC3)nc3c2C(=O)CC(C)(C)C3)cc1
RP-LC retention time: 1250 s

O=C(c1cn(-c2cc(Nc3ccccc3)ncn2)cn1)N1CCN(c2ncccn2)CC1
RP-LC retention time: 749 s

Cc1cc(C(=O)N2CC(F)(F)C[C@H]2c2nc(C3CC3)no2)on1
RP-LC retention time: 809 s

CCCn1c(=O)c(C)nc2cc(-c3noc(-c4ccccc4F)n3)ccc21
RP-LC retention time: 1130 s

Cc1ccc(-c2nc(-c3ccc4oc(C)nc4c3)no2)cc1
RP-LC retention time: 1180 s

CCc1ccc(NS(=O)(=O)c2cc3n(c2)CCCNC3=O)cc1
RP-LC retention time: 691 s

CSc1cccc(NC(=O)N(C)CCc2noc(-c3ccc(F)cc3)n2)c1
RP-LC retention time: 922 s

Cc1cc(C)c(CNC(=O)c2cn3ccccc3n2)c(C)c1
RP-LC retention time: 783 s

CCOc1ccc2nc(NC(=O)Cc3csc4nc(-c5ccccc5)cn34)sc2c1
RP-LC retention time: 874 s

CCOC(=O)C1=C(CN2CCN(c3ccccn3)CC2)NC(=O)NC1c1ccccc1 (centres undefined)
RP-LC retention time: 596 s

CCCC(=O)Nc1ccc2c(c1)CN(C(=O)C1CC1)C(C(=O)N(C)C)C2 (centres undefined)
RP-LC retention time: 709 s

O=S(=O)(c1ccc(C(F)(F)F)cc1)N1CCCC(Cn2cnc3cccnc32)C1 (centres undefined)
RP-LC retention time: 831 s

COCCN1CN=C(Nc2nc(C)c3ccccc3n2)NC1
RP-LC retention time: 589 s

CCN(C(C)=O)c1nc(-c2ccc(Br)cc2)cs1
RP-LC retention time: 1170 s

CCOC(=O)c1c(S(=O)(=O)NCc2ccc3c(c2)OCO3)n[nH]c1CC
RP-LC retention time: 718 s

COCc1cn(CC2CCCN(Cc3cn(C)c4ccc(OC)cc34)C2)nn1 (centres undefined)
RP-LC retention time: 600 s

COCC1CN(C(C)=O)CC12CCN(C(=O)C1CC=CCC1)CC2 (centres undefined)
RP-LC retention time: 671 s

O=C(Nc1ccc2c(c1)OCCO2)C1CCCN(c2nnc3c(Cl)cccn23)C1 (centres undefined)
RP-LC retention time: 709 s

CN(C)c1cccc(C(=O)Nc2cc(-c3cccs3)no2)c1
RP-LC retention time: 970 s

O=C(NCCc1csc(-c2cccc(F)c2)n1)c1ccc2c(c1)OCO2
RP-LC retention time: 847 s

OC[C@@H]1CN(C2CCCC2)C[C@H]1c1nc(-c2cccnc2)no1
RP-LC retention time: 553 s

Cc1noc([C@@H]2CC(F)(F)CN2C(=O)CCc2c(C)noc2C)n1
RP-LC retention time: 718 s

CCC(=O)N1CCc2cc(N3CC(C(=O)NC(C)CC)CC3=O)ccc21 (centres undefined)
RP-LC retention time: 669 s

CCn1cnc2ccc(-c3noc(-c4ccccc4OC)n3)cc21
RP-LC retention time: 742 s

CCc1ccc(S(=O)(=O)NCCc2csc3nc(-c4cccc(F)c4)nn23)s1
RP-LC retention time: 994 s

CSc1cccc(NC(=O)NC2CCN(c3ccc(F)c(C)c3)C2=O)c1 (centres undefined)
RP-LC retention time: 867 s

CCn1c(C)c(CN2CCC(C(=O)N3CCN(c4ccccc4F)CC3)CC2)c2ccccc21
RP-LC retention time: 729 s

N=C(CC(O)COc1ccccc1-c1ccccc1)N1CCCCC1 (centres undefined)
RP-LC retention time: 793 s
